In patent US6413773B1, “Phosphatidylinositol 3-kinase inhibitors as stimulators of endocrine differentiation” (The Regents of the University of California, priority 1998, dated 2002):

Tests used:
PIP3 = assay: Determination of total cellular PIP3 in [32P]orthophosphate-labeled ICCs; assay type: cell-based, human
Description: The ICCs, which were pretreated for 5 d with PI3K inhibitors, NIC, HGF/SF, or control buffer, were subsequently harvested and suspended at a concentration of 2 3 10 5 cells/ml in buffer A (30 mM Hepes, pH 7.2, 110 mM NaCl, 10 mM KCl, 1 mM MgCl2, 10 mM glucose), and 1 mCi/ml [^32P]orthophosphate ([…]; DuPont/NEN) was added. The cells were incubated at 37° C. for 2 h and then washed 3× with buffer A. Depending on the type of experiment, the labeled islet cells were either directly lysed by addition of 3 ml chloroform/methanol (1:2, vol/vol), followed by 4 ml chloroform/2.4 M HCl (1: 1, vol/vol) (to measure basal levels of PIP3 ), or labeled cells were first stimulated with 25 ng/ml HGF/SF for the indicated times, and subsequently the reaction was stopped as above (to measure the inducible levels of PIP3 ). Phospholipids were extracted and analyzed by thinlayer chromatography, and the total cellular PIP3 was quantified, as we described previously in detail (Ptasznik et al. (1996) J. Biol. Chem. 271 :25204-25207).

human fetal ICCs [1] = assay: Insulin content and insulin release of ICCs; assay type: cell-based
Text: The use of human fetal tissue for these studies was reviewed and approved by the Institutional Review Board at our university. Human fetal pancreases at 18-24 gestational wk were obtained with appropriate permissions and patient consent through nonprofit organ procurement programs (Advanced Bioscience Resources, Oakland, Calif.; Anatomic Gift Foundation, Laurel, Md.). Experiments were started by the enzymatic digestion with collagenase P (Boehringer Mannheim Corp., Indianapolis, Ind.) of the human fetal pancreases followed by tissue culture for 5 d, which led to the formation in vitro of ICCs, as previously described in detail (Otonkoski et al. (1993) J. Clin. Invest. 92:1459-1466). […] After incubation with various factors in culture, the ICCs were harvested, and measurements of insulin content, insulin release in response to glucose plus theophylline, and [^3H]thymidine incorporation into DNA were performed as described previously (Otonkoski et al. (1993) J. Clin. Invest. 92:1459-1466).

PI3K [2] = assay: PI3K assay on immunoprecipitates from treated fetal ICCs; assay type: cell-based, human; conditions: for control PI3K activity eliminated, p85 immunoprecipitates: 100 nM wortmannin or 10 μM Ly294002, 5 d
Text: The use of human fetal tissue for these studies was reviewed and approved by the Institutional Review Board at our university. Human fetal pancreases at 18-24 gestational wk were obtained with appropriate permissions and patient consent through nonprofit organ procurement programs (Advanced Bioscience Resources, Oakland, Calif.; Anatomic Gift Foundation, Laurel, Md.). Experiments were started by the enzymatic digestion with collagenase P (Boehringer Mannheim Corp., Indianapolis, Ind.) of the human fetal pancreases followed by tissue culture for 5 d, which led to the formation in vitro of ICCs, as previously described in detail (Otonkoski et al. (1993) J. Clin. Invest. 92:1459-1466).
PI3K inhibitors, NIC, or HGF/SF were added to the culture medium from the very beginning. Medium plus factor was changed every day for 5 d. For direct comparison, portions of the same pancreases were grown, treated with factors, and used for transcriptional analyses, insulin content and secretion, PI3K activities, and DNA synthesis.
(§1) Aliquots of cell lysates normalized for protein content were incubated for 3 h with antiPI3K antibodies directed against the 85kD regulatory subunit or with antiphosphotyrosine antibodies (Upstate Biotechnology, Inc., Lake Placid, N.Y.). The immune complexes were absorbed onto protein A-Sepharose and washed as described (Ptasznik et al. (1995) J. Biol. Chem. 270:19969-19973). PI3K assays were performed directly on beads. Briefly, the reaction was carried out for 10 min in a buffer containing 40 mM Hepes, pH 7.2, 6 mM MgCl2, 1 mM EDTA, […] (Avanti Polar Lipids, Alabaster, Ala.), […], and 10 mCi [γ^32P]ATP (6,000 Ci/mmol; DuPont/NEN, Wilmington, Del.). Adenosine (0.2 mM) was added to the reaction mixture to inhibit residual PI 4 kinase activity. After the incubation, the reaction was stopped with methanol plus 2.4 N HCl (1:1, vol/vol), and lipids were extracted, analyzed by thin-layer chromatography, and quantified as described previously (Ptasznik et al. (1995) J. Biol. Chem. 270:19969-19973). In some experiments, the direct binding of PI3K to p190Met after HGF/SF stimulation of islet cells was determined, as previously described in detail (Graziani, et al. (1991) J. Biol. Chem. 266:22087-22090).

human fetal ICCs [3] = assay: Triple immunofluorescence, confocal microscopy and morphometric analysis; assay type: cell-based
Description: ICCs cultured for 5 d in either control medium or medium containing 10 μM Ly 294002 were paraffin embedded, and […] sections were stained for hormone immunoreactivity. To simultaneously identify cells producing insulin, glucagon, somatostatin, and pancreatic polypeptide (pp), we followed a modification of our previous protocol for multiple labeling (Otonkoski et al. (1996) J. Clin. Invest. 79:351-358). Briefly, sections were incubated for 1 h at room temperature with a mixture of primary antibodies: IgG fraction of a sheep anti-human insulin antiserum (The Binding Site, Birmingham, England) ([…]), mouse monoclonal anti-human glucagon (Sigma Chemical Co.) (1 mg/ml), rabbit anti-human somatostatin antiserum (Dako Corporation, Carpinteria, Calif.) (used at 1:100 dilution), and rabbit anti-human pp antiserum (Chemicon International, Inc., Temecula, Calif.) (used at 1:100 dilution). In separate sections, a mixture of normal sheep, rabbit, and mouse IgGs was used as control reference for specificity of primary antibodies. After washings in PBSDS (5 mM glycine, 0.2% donkey serum, 0.1% BSA), sections were incubated for 1 h at room temperature with a cocktail of F(ab′)2 fractions from secondary antibodies: lissamine-rhodamine-conjugated affinity-purified donkey anti-sheep IgGs ([…]); FITC-conjugated affinity-purified donkey anti-rabbit IgGs ([…]); and indodicarbocyanine-conjugated affinity-purified donkey anti-mouse IgGs ([…]). All F(ab′)2 were preadsorbed on appropriate multiple species to eliminate the possibility of crossreactivity in multiple labeling protocols (Jackson ImmunoResearch Labs, Inc., West Grove, Pa.). The sections were processed as previously described (Otonkoski et al. (1996) J. Clin. Invest. 79:351-358) and viewed on a laser scanning confocal microscope (model MRC1024; BioRad Laboratories, Hercules, Calif.).
Sections were prepared from control and Ly294002 treated ICCs from three independent experiments. […] All images collected (one image per section) were then analyzed for total surface area and insulin, glucagon, somatostatin, and positive cell surface area by using measurement tools in the software NIH Image 1.60 (National Institutes of Health, Bethesda, Md.). Data were analyzed in Stat View 4.01 (Abacus Concepts, Inc., Berkeley, Calif.) for calculation of mean, standard deviation, and parametric statistic (t test).

[4] = tested on: fetal pancreatic cells growing as islet-like cell clusters; assay: Cytotoxicity and apoptosis in culture
[5] = tissue culture medium; cited from earlier work
[6] = tested on: islet hormone gene expression in human fetal ICCs; assay: Multiprobe ribonuclease protection assay of islet hormone mRNA; assay type: cell-based; conditions: ICCs 5 d, 100 nM wortmannin or 10 μM Ly294002, FIG. 1
Text: The use of human fetal tissue for these studies was reviewed and approved by the Institutional Review Board at our university. Human fetal pancreases at 18-24 gestational wk were obtained with appropriate permissions and patient consent through nonprofit organ procurement programs (Advanced Bioscience Resources, Oakland, Calif.; Anatomic Gift Foundation, Laurel, Md.). Experiments were started by the enzymatic digestion with collagenase P (Boehringer Mannheim Corp., Indianapolis, Ind.) of the human fetal pancreases followed by tissue culture for 5 d, which led to the formation in vitro of ICCs, as previously described in detail (Otonkoski et al. (1993) J. Clin. Invest. 92:1459-1466). […] Transcriptional analyses on total RNA ([…]) were performed using a multiprobe ribonuclease protection assay, as previously described (Otonkoski et al. (1993) J. Clin. Invest. 92:1459-1466). The housekeeping gene cyclophilin was used as an internal control, and yeast tRNA (10 μM) was included as a negative control. Probes used were of human origin and were described previously (Otonkoski et al. (1993) J. Clin. Invest. 92:1459-1466). Target RNAs were quantitated in autoradiographs by scanning densitometry (LKB UltroScan XL Laser) and integrated using Gel Scan XL software (Pharmacia LKB Biotechnology, Inc., Piscataway, N.J.). The probe-specific mRNA signals were normalized to the cyclophilin signal in each sample to account for differences in sample loading between lanes.

human fetal ICCs [7] = assay: [3H]thymidine incorporation into DNA; assay type: cell-based; conditions: ICCs 5 d with inhibitor, FIG. 4A
Description: After incubation with various factors in culture, the ICCs were harvested, and measurements of insulin content, insulin release in response to glucose plus theophylline, and [^3H]thymidine incorporation into DNA were performed as described previously (Otonkoski et al. (1993) J. Clin. Invest. 92:1459-1466).

purified fetal islets = assay: Endocrine function in purified fetal islets; assay type: cell-based, human
Description: Effects of PI3K inhibitors on endocrine function were tested not only in ICCs, but also in purified islets. Undifferentiated epithelial cells account for z75-80% of the total cell mass in ICCs. By contrast, purified fetal islets contain about 10 fold fewer undifferentiated epithelial cells (Beattie et al. (1996) Diabetes. 46:244-248). Purification of human fetal pancreatic islets was performed as recently described (Beattie et al. (1996) Diabetes. 46:244-248). Fetal islets, identified as homogeneous differentiated clusters of dithizonepositive cells, were incubated with factors as above.

[8] = tested on: islet hormone gene expression in human fetal ICCs; conditions: earlier publications; cited from earlier work
p85 protein = assay: Western blotting of p85 protein; assay type: cell-based, human; conditions: during NIC treatment
PI3K [9] = assay: Direct effect on PI3K activity in vitro in p85 immunoprecipitates; assay type: biochemical, human; conditions: various concentrations of NIC
Description: as §1

## O=c1cc(N2CCOCC2)oc2c(-c3ccccc3)cccc12 [Ly294002, 2-(4-Morpholinyl)-8-phenyl-4 H-1-benzopyran-4-one]
PIP3; 100 nM wortmannin or 10 μM Ly294002, intact labeled islet cells
  rise in PIP3 formation stimulated by growth factors: almost completely inhibited
Human fetal ICCs [1]; ICCs cultured 5 d with inhibitor, FIG. 2A
  insulin content per cellular DNA versus untreated control: significantly increased
Human fetal ICCs [1]; ICCs cultured 5 d with inhibitor, glucose plus theophylline, FIG. 2B
  insulin secretion per cellular DNA versus untreated control: significantly increased
PI3K [2]; FIG. 7
  control PI3K activity eliminated, p85 immunoprecipitates: 90%
Human fetal ICCs [3]; 10 μM Ly294002, 5 d
  increase in the total percentage of endocrine-positive cells versus control ICCs: 4.4 fold
Human fetal ICCs [3]; 10 μM Ly294002, 5 d, FIG. 3
  frequency of cells coexpressing multiple hormones: increased
  total endocrine cell surface area: significantly increased
Human fetal ICCs [3]; 10 μM Ly294002, 5 d, FIG. 3, n=3
  endocrine surface area for all hormones (insulin; somatostatin and pp; glucagon), percent of total ICC surface area: significantly increased
Human fetal ICCs [3]; blockade of PI3K activity in culture
  number of hormone producing cells growing in ICCs: significantly increased
[4]
  cytotoxicity (general statement): no significant cytotoxicity
[5]
  stability in culture medium: very stable
[6]
  transcriptional level of glucagon: increased
  transcriptional level of insulin: increased
  transcriptional level of somatostatin: increased
Human fetal ICCs [7]
  [3H]thymidine incorporation into DNA: significantly decreased

## NC(=O)c1cccnc1 [NIC, nicotinamide]
PIP3; 10 mM NIC, 5 d, FIG. 6
  basal level of PIP3 versus control cells: significantly lower
PI3K [2]; 10 mM NIC, 5 d, FIG. 7
  amount of PI3K activity in p85 immunoprecipitates, lower than untreated cells: about fivefold
PI3K [2]; NIC-treated cells
  inducibility of cellular PI3K activity by growth factors and de novo formation of PIP3: significantly reduced
Purified fetal islets
  effect on endocrine function in purified fetal islets: no effect
[8]
  insulin and glucagon gene transcription and insulin protein biosynthesis: an increase
p85 protein
  actual level of p85 protein: no change
PI3K [9]
  direct inhibitory effect on PI3K activity in vitro: not a direct inhibitor

## CO[C@@]12[C@H](COC(N)=O)C3=C(C(=O)C(C)=C(N)C3=O)N1C[C@@H]1N[C@@H]12 [mitomycin C]
Human fetal ICCs [1]; 2 mg/ml mitomycin C for 5 d, FIG. 4B
  insulin protein expression: does not affect
PI3K [2]; mitomycin C-treated cells
  basal PI3K activity in fetal islet cells significantly affected: neither

## COC[C@H]1OC(=O)c2coc3c2[C@@]1(C)C1=C(C3=O)[C@@H]2CCC(=O)[C@@]2(C)C[C@H]1OC(C)=O [wortmannin]
PI3K [2]; FIG. 7
  control PI3K activity eliminated, p85 immunoprecipitates: 90%
[4]; continuous treatment 5 d, 100 nM wortmannin, 10 μM Ly294002
  cytotoxicity and apoptosis: does not cause notable cytotoxity nor induce apoptosis
[5]
  stability in culture medium: much less stable

## hepatocyte growth factor/scatter factor [HGF/SF]
PIP3; ICCs growing continuously (5 d) with 25 ng/ml HGF/SF, FIG. 6
  increase in levels of PIP3: threefold
PI3K [2]; 25 ng/ml HGF/SF, ICCs starved 24 h, antiphosphotyrosine immunoprecipitates, FIG. 5
  cellular PI3K activity after acute stimulation: robustly activated
[8]
  insulin and glucagon gene transcription and insulin protein biosynthesis: marked down-regulation
